The values that follow come from publication PMC9863556, “Influence of Green Synthesized Zinc Oxide Nanoparticles on Molecular Interaction and Comparative Binding of Azure Dye with Chymotrypsin: Novel Nano-Conjugate for Cancer Phototherapy” (Pharmaceutics, 2022).

The test deals with α-chymotrypsin (α-Chymo) (Bos taurus, UniProt P00766). Put plainly: UV-Visible titration (Benesi-Hildebrand binding constant), supported by tryptophan fluorescence quenching (Ksv […] at […] K, static) and CD.

Structures are written as SMILES.

Turning to `CNc1ccc2nc3ccc(N)cc3[s+]c2c1` [AzC, AzureC], binding was put at a Kd of 17.5 µM.
